Test results published in paper PMC11079029, “Intramolecular autoinhibition regulates the selectivity of PRPF40A tandem WW domains for proline-rich motifs” (Nature Communications, 2024).
Like-named read-outs stand apart in the source and are kept apart here.

What was measured:
[1] = test system: GFP-tagged PRPF40A-Nter-MUT; experiment: SILAC GFP-immunoprecipitation with quantitative mass spectrometry, mutant construct; assay type: binding, human (Hela cells); details: quantitative MS, Hela cells, protein by gene name
Protocol: The PRPF40A N-terminal region (isoform 2, residues 1-221) was PCR-amplified from RPE1 cDNA (ATCC, Cat# CRL-4000) cDNA. The sequence was amplified in two fragments and both fragments were combined by overhang. All PCRs were carried out using Q5 Polymerase (NEB) according to manufacturer’s protocol. The resulting PRPF40A N-terminal region was cloned into a GFP-expressing pcDNA5 vector (see pcDNA5 GFP vector in ref. [28]) using Q5 Site-Directed Mutagenesis Kit (NEB). Nter-MUT, containing the PPVP/PALPP motifs changed to AAAA/AAAAA, was obtained by mutating the N-ter-WW12-containing plasmid with Q5 site-directed mutagenesis. Plasmids were transformed into DH5alpha chemically competent cells. After culturing, DNA isolation was performed with either ZymoPURE Plasmid Miniprep Kit (Zymo Research) or QIAGEN Plasmid Plus Midi Kit (Qiagen). The sequence was confirmed by Sanger Sequencing (GATC Eurofins). All used oligonucleotides are shown in Supplementary Table 6.
Hela cells (ATCC, Cat# CCL-2, RRID:CVCL_0030) were cultured in DMEM SILAC medium (Thermo Fisher) supplemented with 10% filtered FBS (Sigma-Aldrich) and 1% penicillin-streptomycin (Thermo-Fisher). The SILAC medium contains either light (Arg0, Lys0), medium (Arg6, Lys4) or heavy (Arg10, Lys8) isotopes (Cambridge Isotopes Laboratories). Hela cells were cultivated for 14 days in SILAC medium to assure sufficient isotope incorporation. For transfection, 7 × 10^6 Hela cells were seeded in a 15 cm culture dish in 20 ml of respective SILAC medium and grown for 24 h. The cells were then transfected with 20 µg of plasmids expressing either GFP (Control), GFP-tagged N-ext-WW12 or GFP-tagged-N-ext-WW12-MUT utilizing 64 µl FuGENE (Promega) (ratio 1:3.2), according to manufacturer’s protocol.
24 h post-transfection, cells were washed twice in ice-cold PBS and harvested in 1 ml mRIPA buffer (50 mM Tris, 150 mM NaCl, 1 mM EDTA, 1% NP-40, 0.1% Na-deoxycholate), supplemented with 2 µl Turbo-DNase (Thermo Fisher) and 3 µl protease-inhibitor cocktail cOmplete (Sigma-Aldrich). Cell lysates were cleared by centrifugation at 16,000 × g, 4 °C, 15 min and concentration was measured using Pierce BCA Protein Assay kit (Thermo Scientific). The expressed constructs were pulled down by incubating 2.5 mg of lysate with 20 μl GFP-nanobody agarose beads (ChromoTek, GTA-20) for 1 h at 4 °C under constant agitation. Subsequently, beads were washed three times with mRIPA buffer without supplements, then eluted in 1X NuPAGE LDS sample buffer (Thermo Scientific). To detach the proteins from the beads, the eluate was heated to 70 °C for 10 min To evaluate the success of the immunoprecipitation, input (1%) and IP samples were analyzed on a NuPAGE 4–12% Bis-Tris-Acrylamide gel (Thermo Fisher) using NuPAGE MOPS SDS running buffer (Thermo Fisher). Proteins were stained using Sypro Ruby protein gel stain (Thermo Fisher) according to manufacturer’s protocol.
The eluted proteins of three SILAC states (light, medium, heavy) were combined. The proteins were then reduced in DTT, alkylated in iodoacetamide, and purified using the SP3 paramagnetic bead approach. This was followed by overnight enzymatic digestion using trypsin (1 µg per sample) in 50 mM ammonium bicarbonate at 37 °C. The peptide solution was then purified by solid phase extraction in C18 StageTips[99].
Peptides were separated by online reverse phase liquid chromatography using the EASY-nLC 1000 system (Thermo Scientific) in a 30-cm analytical column (inner diameter: 75 μm; heated at 50 °C) packed in-house with ReproSil-Pur 120 C18-AQ 1.9-μm beads (Dr. Maisch GmbH). The gradient separation was performed through a 105-min non-linear gradient of 1.6–32% acetonitrile with 0.1% formic acid at a nanoflow rate of 225 nl/min. The eluted peptides were sprayed directly by electrospray ionization into a Q Exactive Plus Orbitrap mass spectrometer (Thermo Scientific). […]

PRPF40A N-ext-WW12 = experiment: NMR titration (1H-15N and 1H-13C HSQC) of N-ext-WW12 with SF1 peptides; assay type: binding, human; details: NMR titration of N-ext-WW12, ratios 1:1 up to 1:4
Protocol: NMR samples were prepared at concentrations ranging 100–1000 μM in buffer containing 20 mM sodium phosphate pH 6.5, 100 mM NaCl, 1 mM DTT, and 10% or 100% D2O, and measured at 25 °C (except stated otherwise) in 900-, 800-, 600- and 500-MHz Bruker Avance III NMR spectrometers equipped with cryogenic triple resonance gradient probes. Topspin 4.1.0 (Bruker) software was used for NMR data acquisition. Spectra were processed with NMRpipe 8.9[76] and analyzed using ccpnNMR Analysis 2.5 software.
^15N-labeled PRPF40A proteins (WW1, WW2, WW12, and N-extWW12) at around 100 μM concentration were titrated with increasing concentration ratios of polyproline or SF1 peptides (GB1 tagged) until reaching saturation, when possible; ^1H-^15N HSQC experiments and in some cases ^1H-^13C HSQC experiments (using double-labeled PRPF40A proteins) were acquired at each titration point. The chemical shift perturbation (CSP) was weighted using the Eqs. (1) and (2)[89].1 CSP(HN)=0.5⋅ΔδH2+0.14⋅ΔδN2 2 CSP(HC)=0.5⋅ΔδH2+0.3⋅ΔδC2

[2] = target: T1, PRPF40A WW12 (tandem WW domains, residues 141–236) (Homo sapiens, UniProt O75400); experiment: ITC of PRPF40A WW12 with GB1-tagged proline-rich peptides and constructs; assay type: binding; details: for Kd: ITC
T1 construct: WW12 141–236, WW12long 141–248, and N-ext-WW12 56–236; 6xHis-TEV site (N, cleaved yes); made in house; host or cells: Escherichia coli BL21(DE3)
T1 sequence (O75400 141-236): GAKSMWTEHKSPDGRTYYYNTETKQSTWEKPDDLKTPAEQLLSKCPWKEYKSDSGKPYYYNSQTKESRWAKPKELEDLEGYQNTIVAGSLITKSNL
From the text: PRPF40A isoform 1 sequences (N-ter 1–310, WW12short 141–223, WW12 141–236, WW12long 141–248, and N-ext-WW12 56–236) were amplified from a purchased DNA fragment (IDT) and cloned using NcoI and KpnI restriction sites into a pETM11 vector encoding 6xHis and TEV cleavage site as a N-terminal tag. SF1 (Pro A 410–468, Pro B 468–539, Pro C 539–594, Pro D 594–639, Pro BC 468–594, Pro CD 539–639, Pro BCD 468–639 and Pro ABCD 410–639) and SF3A1 (Middle Pro 364–413 and C-ter Pro 552–683) constructs were prepared in a similar manner using a pET24 vector with a 6xHis, GB1 and TEV cleavage site as N-terminal fusion cassette. 16-mer SF1 constructs (Table 1) and polyproline peptides (P6, P8, P10, P13, P16, P19, P22, P25, and P29) were cloned in the same pET24 vector with GB1 tag by direct ligation of purchased oligonucleotides (Eurofins). All peptide sequences contained N and C-terminal common residues to avoid boundary effects on binding: TEVsite-GAMSGS-peptide-SGSN. Mutants of PRPF40A WW12 and N-ext-WW12 constructs were prepared by site-directed mutagenesis. The truncated version of PRPF40A WW12 (141-217) was a gift from Dr. María Macías (IRB, Spain). All used oligonucleotides were purchased from Eurofins Genomics and are shown in Supplementary Table 6.
Resuspended cell pellets in 20 mM Tris pH 8.0, 500 mM NaCl, 10 mM imidazole, 0.5 mM TCEP, and protease inhibitors mix (SERVA) were lysed by cell disruption in a French press. Clear lysates, after centrifugation (at 18,000 g) and filtering, were loaded into Ni-NTA resin. The resin was then washed with 20 mM imidazole containing buffer, and the desired protein was eluted with 500 mM imidazole. PRPF40A constructs were then subjected to TEV protease treatment (homemade at a final concentration of ≈50 μg/ml), dialyzed overnight at 4 °C against an imidazole-free buffer, and then loaded again to Ni-NTA resin; desired digested proteins were obtained in the flow-through and wash fractions while uncleaved protein, TEV protease, and impurities remained bound to the resin. Cleaved PRPF40A proteins and GB1-tagged SF1, SF3A1, and polyproline constructs were further purified by size-exclusion chromatography on a HiLoad 16/60 Superdex 75 column (GE Healthcare) equilibrated with 20 mM sodium phosphate, pH 6.5, 100 mM NaCl and 1 mM DTT buffer. For the purification of PRPF40A WW12 in complex with SF1 peptide, cell pellets of recombinant expression for both proteins were mixed and processed together following the Ni-NTA—TEV digestion—reverse Ni-NTA—SEC-75 protocol; where the complex remained bound in a 1:1 stoichiometry throughout the whole purification (corroborated by NMR). Molecular weight of each sample was confirmed by mass spectrometry, purity was checked by PAGE-SDS, and protein concentrations were determined from the aromatic contribution to the UV absorbance spectra at 280 nm.
Experiments were conducted on a MicroCAl PEAQ-ITC (Malvern Instruments, UK) at 25 °C in 20 mM sodium phosphate pH 6.5 and 100 mM NaCl. PRPF40A was titrated into N-terminal GB1 tagged SF1 or polyproline constructs and vice versa with similar results. Protein concentrations in the cell were around 20–40 μM, while in the syringe ranged between 200 and 500 μM. Experiments were performed at least in duplicate with injections of 1.5 μL (0.4 μL for first point) separated by 150 s delays to recover thermal power baseline and continuous stirring in the cell (750 rpm) for correct mixing. The reference cell was filled with water in all experiments. Data were processed by removing the blank experiment (using digested GB1 fusion protein) and adjusted to one-site binding model with Malvern PEAQ-ITC Analysis software (Malvern Instruments, UK).

Substance: CCNT1;CCNT2
- Immunoprecipitation enrichment MUT vs WT, log2 FC [1]: 1.3354

Substance: CDK9
- Immunoprecipitation enrichment MUT vs WT, log2 FC [1]: 1.401

Substance: CDK12
- Immunoprecipitation enrichment MUT vs WT, log2 FC [1]: 1.215

Substance: EFTUD2
- Immunoprecipitation enrichment MUT vs WT, log2 FC [1]: 1.181

Substance: INF2
- Immunoprecipitation enrichment MUT vs WT, log2 FC [1]: 1.013

Substance: MPPPPMGMMPPPPPPP [SF1_470–485]
- displacement of the intramolecular N-terminal motifs (methyl signals Val 80, Val 129) (PRPF40A N-ext-WW12): cannot fully displace the intramolecular motifs
- N (sites) ([2]; ITC as E1, peptide in the cell, WW tandem in the syringe, N >1 = more than one WW tandem per peptide): 0.90 ± 0.16 sites
- DH ([2]; ITC binding enthalpy, as E1): -13.6 ± 0.813 kcal/mol
- Kd ([2]; 25 °C, 20 mM sodium phosphate pH 6.5, 100 mM NaCl, GB1-tagged polyproline or SF1 16-mer peptide in the cell, WW tandem in the syringe, one-site model, apparent Kd, average of at least duplicates, read-out: Kd): 13.9 ± 2.3 µM
- Kd ([2]; SF1 peptides, individual value 1 (replicate 1), read-out: Kd Values with WW12, individual value): 10.9 µM
- Kd ([2]; SF1 peptides, individual value 2 (replicate 2), read-out: Kd Values with WW12, individual value): 13.3 µM
- Kd ([2]; SF1 peptides, individual value 3 (replicate 3), read-out: Kd Values with WW12, individual value): 14 µM
- Kd ([2]; SF1 peptides, individual value 4 (replicate 4), read-out: Kd Values with WW12, individual value): 17.3 µM

Substance: SAE1
- Immunoprecipitation enrichment MUT vs WT, log2 FC [1]: 1.104

Substance: SNRNP200
- Immunoprecipitation enrichment MUT vs WT, log2 FC [1]: 1.2097

Substance: WIZ
- Immunoprecipitation enrichment MUT vs WT, log2 FC [1]: 1.529
